Reference: patent US20230130766A1 (SALK INSTITUTE FOR BIOLOGICAL STUDIES, priority 2020, published 2023)

Target: T1, ULK1 (Homo sapiens, UniProt O75385)
T1 sequence (O75385 1-1050): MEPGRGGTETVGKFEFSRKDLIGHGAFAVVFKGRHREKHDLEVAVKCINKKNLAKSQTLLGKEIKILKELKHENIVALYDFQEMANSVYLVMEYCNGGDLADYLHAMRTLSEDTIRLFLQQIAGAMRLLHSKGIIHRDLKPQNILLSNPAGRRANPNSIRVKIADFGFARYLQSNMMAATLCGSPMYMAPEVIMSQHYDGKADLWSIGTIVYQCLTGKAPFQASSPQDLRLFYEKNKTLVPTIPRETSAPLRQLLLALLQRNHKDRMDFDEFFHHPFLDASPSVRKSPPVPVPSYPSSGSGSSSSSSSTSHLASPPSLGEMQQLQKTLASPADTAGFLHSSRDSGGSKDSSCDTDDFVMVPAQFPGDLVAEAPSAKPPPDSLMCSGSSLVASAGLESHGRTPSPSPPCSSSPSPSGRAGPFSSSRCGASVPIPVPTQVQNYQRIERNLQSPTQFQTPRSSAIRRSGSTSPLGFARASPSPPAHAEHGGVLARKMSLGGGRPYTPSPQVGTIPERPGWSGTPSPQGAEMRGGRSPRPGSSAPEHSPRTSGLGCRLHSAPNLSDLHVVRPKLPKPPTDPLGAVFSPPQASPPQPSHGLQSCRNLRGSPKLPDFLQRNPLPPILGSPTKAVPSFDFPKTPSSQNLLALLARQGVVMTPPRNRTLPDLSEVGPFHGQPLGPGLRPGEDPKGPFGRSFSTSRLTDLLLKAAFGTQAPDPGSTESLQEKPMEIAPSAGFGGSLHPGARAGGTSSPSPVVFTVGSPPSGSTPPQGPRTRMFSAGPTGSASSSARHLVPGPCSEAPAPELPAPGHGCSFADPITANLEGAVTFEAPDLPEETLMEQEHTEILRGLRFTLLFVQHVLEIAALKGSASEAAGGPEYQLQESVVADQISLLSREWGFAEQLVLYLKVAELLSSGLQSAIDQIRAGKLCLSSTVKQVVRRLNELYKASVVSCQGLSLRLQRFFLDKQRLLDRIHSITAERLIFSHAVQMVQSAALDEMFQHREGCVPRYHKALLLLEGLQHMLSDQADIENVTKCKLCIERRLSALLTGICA
Assay: ULK1 inhibition assay
Assay type: biochemical
Conditions: * = tested as a mixture of regioisomers

`CNC(=O)c1ccccc1Nc1nc(Nc2cc(OC)c(OC)c(OC)c2)ncc1Br` [Compound 14] was tested, and the IC50 was under 200 nM.
